Measurements: ChEMBL document CHEMBL6114946, “Development and characterization of pyridyl carboxamides as potent and highly selective Nav1.8 inhibitors” (Bioorg Med Chem Lett, 2025)
Values after ≈ are worked out from the molar mass of the structure shown. Active and inactive are the calls of the source. The calls are words filed in the database; no cut-off is given here.

Legend:
[1] = biological target: T1, Sodium channel protein type 10 subunit alpha (Homo sapiens, UniProt Q9Y5Y9); test: Inhibition of Nav1.8 (unknown origin) over expressed in HEK cells exposed to 120th depolarizing pulse at 10 Hz train of action potential at 12 nM; assay type: cell-based
[2] = Protein binding in human plasma assessed as unbound fraction; assay type: ADME, cell-free
[3] = Ratio of drug level in rat brain to plasma at 1 mg/kg, iv measured after 60 mins; assay type: ADME, organism-based; conditions: read-out: BPR
[4] = biological target: Nav1.2 (sodium channel protein type 2 subunit alpha) (Homo sapiens, UniProt Q99250); test: Inhibition of Nav1.2 (unknown origin) at 30 uM relative to control; assay type: toxicity
[5] = biological target: Nav1.1 (sodium channel protein type 1 subunit alpha) (Homo sapiens, UniProt P35498); test: Inhibition of Nav1.1 (unknown origin) at 30 uM relative to control; assay type: toxicity
[6] = biological target: T1, Sodium channel protein type 10 subunit alpha; test: Inhibition of human Nav1.8 with resting membrane potential at half inactivated state by PatchXpress high-throughput electrophysiology method
[7] = Clearance in cynomolgus monkey at 1 mg/kg; assay type: ADME, organism-based, Macaca fascicularis; conditions: in vivo
[8] = Apparent permeability in MDCK-MDR1 cells; assay type: ADME, cell-based, Canis lupus familiaris; conditions: dog
[9] = biological target: Nav1.3 (sodium channel protein type 3 subunit alpha) (Homo sapiens, UniProt Q9NY46); test: Inhibition of Nav1.3 (unknown origin) at 30 uM relative to control; assay type: toxicity
[10] = Inhibition of Nav1.5 (domain 1 and 2)-Nav 1.8 (domain 3 and 4) chimera (unknown origin) with resting membrane potential at half inactivated state by PatchXpress high-throughput electrophysiology method; parameters: species or system Homo sapiens
[11] = biological target: T1, Sodium channel protein type 10 subunit alpha; test: Inhibition of Nav1.8 (unknown origin) at 10 uM by Ionflux high-throughput automated patch method
[12] = biological target: Nav1.6 (sodium channel protein type 8 subunit alpha) (Homo sapiens, UniProt Q9UQD0); test: Inhibition of Nav1.6 (unknown origin) at 30 uM relative to control; assay type: toxicity
[13] = Oral bioavailability in rat at 10 mg/kg; assay type: ADME, organism-based; conditions: in vivo
[14] = Volume of distribution at steady state in rat at 1 mg/kg, iv; assay type: ADME, organism-based; conditions: in vivo, read-out: Vdss
[15] = biological target: Nav1.4 (sodium channel protein type 4 subunit alpha) (Homo sapiens, UniProt P35499); test: Inhibition of Nav1.4 (unknown origin) at 30 uM relative to control; assay type: toxicity
[16] = biological target: Nav1.5 (sodium channel protein type 5 subunit alpha) (Homo sapiens, UniProt Q14524); test: Inhibition of Nav1.5 (unknown origin) at 30 uM relative to control; assay type: toxicity
[17] = Volume of distribution at steady state in dog at 1 mg/kg, iv; assay type: ADME, organism-based, Canis lupus familiaris; conditions: in vivo, read-out: Vdss
[18] = Oral bioavailability in cynomolgus monkey at 10 mg/kg; assay type: ADME, organism-based, Macaca fascicularis; conditions: in vivo
[19] = Oral bioavailability in dog at 10 mg/kg; assay type: ADME, organism-based, Canis lupus familiaris; conditions: in vivo
[20] = Clearance in rat at 1 mg/kg; assay type: ADME, organism-based; conditions: in vivo
[21] = biological target: T1, Sodium channel protein type 10 subunit alpha; test: Inhibition of human Nav1.8 with resting membrane potential by PatchXpress high-throughput electrophysiology method
Cytochrome P450 1A2 = biological target: T2, Cytochrome P450 1A2 (Homo sapiens, UniProt P05177); test: Inhibition of CYP1A2 (unknown origin); assay type: ADME
T2 sequence (P05177 whole entry): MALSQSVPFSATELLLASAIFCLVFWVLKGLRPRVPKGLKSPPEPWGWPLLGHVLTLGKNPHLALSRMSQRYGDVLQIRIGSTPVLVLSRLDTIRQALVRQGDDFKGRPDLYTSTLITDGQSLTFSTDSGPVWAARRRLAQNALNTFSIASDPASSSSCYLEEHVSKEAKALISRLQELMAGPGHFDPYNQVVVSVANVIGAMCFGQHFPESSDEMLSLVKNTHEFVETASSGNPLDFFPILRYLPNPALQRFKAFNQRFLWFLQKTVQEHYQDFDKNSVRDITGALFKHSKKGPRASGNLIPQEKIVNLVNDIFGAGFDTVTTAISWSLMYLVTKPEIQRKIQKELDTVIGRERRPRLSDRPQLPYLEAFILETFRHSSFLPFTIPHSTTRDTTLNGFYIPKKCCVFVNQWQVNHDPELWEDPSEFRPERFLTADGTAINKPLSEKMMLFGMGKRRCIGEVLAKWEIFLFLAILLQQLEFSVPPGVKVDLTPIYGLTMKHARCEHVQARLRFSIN

[22] = biological target: Nav1.7 (sodium channel protein type 9 subunit alpha) (Homo sapiens, UniProt Q15858); test: Inhibition of Nav1.7 (unknown origin) at 30 uM relative to control; assay type: toxicity
[23] = Kinetic solubility of the compound in pH 7.4 phosphate buffered saline measured after 2 hrs by LC/MS analysis; assay type: physicochemical; conditions: read-out: Kinetic_solubility
Cytochrome P450 3A4 = Cytochrome P450 3A4 (Homo sapiens, UniProt P08684); test: Inhibition of CYP3A4 (unknown origin); assay type: ADME
[24] = biological target: T1, Sodium channel protein type 10 subunit alpha; test: Inhibition of Nav1.8 (unknown origin) over expressed in HEK cells exposed to 1st depolarizing pulse at 10 Hz train of action potential at 12 nM; assay type: cell-based
[25] = Clearance in dog at 1 mg/kg; assay type: ADME, organism-based, Canis lupus familiaris; conditions: in vivo
[26] = biological target: Voltage-gated inwardly rectifying potassium channel KCNH2 (Homo sapiens, UniProt Q12809); test: Inhibition of human ERG; assay type: toxicity
[27] = Volume of distribution at steady state in cynomolgus monkey at 1 mg/kg, iv; assay type: ADME, organism-based, Macaca fascicularis; conditions: in vivo, read-out: Vdss
[28] = Stability in human liver microsomes assessed as parent compound remaining measured after 60 mins; assay type: ADME, Microsome; conditions: read-out: Stability
[29] = biological target: Sodium channel protein type 10 subunit alpha (Mus musculus, UniProt Q6QIY3); test: Inhibition of mouse Nav1.8 with resting membrane potential at half inactivated state by PatchXpress high-throughput electrophysiology method
[30] = Efflux ratio of apparent permeability in MDCK-MDR1 cells; assay type: ADME, cell-based, Canis lupus familiaris; conditions: dog
[31] = biological target: T1, Sodium channel protein type 10 subunit alpha; test: Inhibition of Nav1.8 (unknown origin) over expressed in HEK cells assessed as reduction in deltamethrin-stimulated channel activation by FLIPR assay; assay type: cell-based
[32] = Half life in rat; assay type: ADME; conditions: in vivo
Cytochrome P450 2C9 = Cytochrome P450 2C9 (Homo sapiens, UniProt P11712); test: Inhibition of CYP2C9 (unknown origin) at 2 to 8 uM; assay type: ADME; conditions: dose 2-8 µM
[33] = biological target: T1, Sodium channel protein type 10 subunit alpha; test: Inhibition of Nav1.8 (unknown origin) over expressed in HEK cells exposed to 1st depolarizing pulse at 10 Hz train of action potential at 35 nM; assay type: cell-based
[34] = biological target: T1, Sodium channel protein type 10 subunit alpha; test: Inhibition of Nav1.8 (unknown origin) over expressed in HEK cells exposed to 120th depolarizing pulse at 10 Hz train of action potential at 35 nM; assay type: cell-based
[35] = Inhibition of Nav1.8 (domain 1 and 2)-Nav 1.5 (domain 3 and 4) chimera (unknown origin) with resting membrane potential at half inactivated state by PatchXpress high-throughput electrophysiology method; parameters: species or system Homo sapiens

Voltage-gated inwardly rectifying potassium channel KCNH2, sequence (Q12809 whole entry): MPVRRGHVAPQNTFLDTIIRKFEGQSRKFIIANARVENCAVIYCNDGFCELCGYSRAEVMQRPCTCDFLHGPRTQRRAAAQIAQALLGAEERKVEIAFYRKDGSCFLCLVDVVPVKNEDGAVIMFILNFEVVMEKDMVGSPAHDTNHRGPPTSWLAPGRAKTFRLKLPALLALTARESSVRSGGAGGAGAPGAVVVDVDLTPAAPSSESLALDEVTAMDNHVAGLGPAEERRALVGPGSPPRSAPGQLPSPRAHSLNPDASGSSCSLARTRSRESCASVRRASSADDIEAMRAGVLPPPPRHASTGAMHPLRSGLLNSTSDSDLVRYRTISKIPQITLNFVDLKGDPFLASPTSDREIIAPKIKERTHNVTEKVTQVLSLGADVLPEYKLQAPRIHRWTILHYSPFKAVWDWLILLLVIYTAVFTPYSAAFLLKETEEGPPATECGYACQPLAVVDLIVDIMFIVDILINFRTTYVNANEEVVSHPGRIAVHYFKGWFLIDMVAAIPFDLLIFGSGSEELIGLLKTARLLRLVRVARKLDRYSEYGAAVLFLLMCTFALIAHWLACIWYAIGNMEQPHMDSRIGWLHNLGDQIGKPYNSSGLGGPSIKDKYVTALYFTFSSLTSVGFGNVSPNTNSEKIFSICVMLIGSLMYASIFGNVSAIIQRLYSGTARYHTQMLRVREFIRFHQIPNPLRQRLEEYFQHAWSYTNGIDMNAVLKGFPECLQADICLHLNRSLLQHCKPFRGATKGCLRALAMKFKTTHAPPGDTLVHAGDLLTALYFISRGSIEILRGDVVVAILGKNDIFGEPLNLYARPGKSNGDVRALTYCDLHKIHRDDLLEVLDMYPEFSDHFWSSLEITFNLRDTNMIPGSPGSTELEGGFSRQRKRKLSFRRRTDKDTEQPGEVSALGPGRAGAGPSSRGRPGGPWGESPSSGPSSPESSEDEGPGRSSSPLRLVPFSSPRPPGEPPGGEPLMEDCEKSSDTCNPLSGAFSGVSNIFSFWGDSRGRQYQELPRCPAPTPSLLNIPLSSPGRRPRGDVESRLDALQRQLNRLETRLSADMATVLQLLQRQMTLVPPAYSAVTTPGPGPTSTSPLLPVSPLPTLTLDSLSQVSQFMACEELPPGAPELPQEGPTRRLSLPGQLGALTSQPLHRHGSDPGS
Cytochrome P450 3A4, sequence (P08684 whole entry): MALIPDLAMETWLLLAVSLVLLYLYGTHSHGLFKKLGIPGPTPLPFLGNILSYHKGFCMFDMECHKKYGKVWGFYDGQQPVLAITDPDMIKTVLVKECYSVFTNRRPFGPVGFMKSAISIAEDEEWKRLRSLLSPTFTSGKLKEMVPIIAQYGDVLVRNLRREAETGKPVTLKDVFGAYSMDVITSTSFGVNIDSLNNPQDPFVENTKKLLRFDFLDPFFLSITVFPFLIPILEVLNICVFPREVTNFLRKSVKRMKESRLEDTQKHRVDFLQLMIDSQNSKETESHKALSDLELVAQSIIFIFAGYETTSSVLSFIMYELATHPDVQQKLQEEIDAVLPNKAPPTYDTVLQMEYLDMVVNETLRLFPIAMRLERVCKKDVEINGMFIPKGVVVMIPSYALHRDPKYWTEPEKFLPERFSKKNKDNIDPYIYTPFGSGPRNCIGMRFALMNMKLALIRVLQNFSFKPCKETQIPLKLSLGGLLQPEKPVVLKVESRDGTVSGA
Sodium channel protein type 10 subunit alpha (Mus musculus, UniProt Q6QIY3), sequence (Q6QIY3 whole entry): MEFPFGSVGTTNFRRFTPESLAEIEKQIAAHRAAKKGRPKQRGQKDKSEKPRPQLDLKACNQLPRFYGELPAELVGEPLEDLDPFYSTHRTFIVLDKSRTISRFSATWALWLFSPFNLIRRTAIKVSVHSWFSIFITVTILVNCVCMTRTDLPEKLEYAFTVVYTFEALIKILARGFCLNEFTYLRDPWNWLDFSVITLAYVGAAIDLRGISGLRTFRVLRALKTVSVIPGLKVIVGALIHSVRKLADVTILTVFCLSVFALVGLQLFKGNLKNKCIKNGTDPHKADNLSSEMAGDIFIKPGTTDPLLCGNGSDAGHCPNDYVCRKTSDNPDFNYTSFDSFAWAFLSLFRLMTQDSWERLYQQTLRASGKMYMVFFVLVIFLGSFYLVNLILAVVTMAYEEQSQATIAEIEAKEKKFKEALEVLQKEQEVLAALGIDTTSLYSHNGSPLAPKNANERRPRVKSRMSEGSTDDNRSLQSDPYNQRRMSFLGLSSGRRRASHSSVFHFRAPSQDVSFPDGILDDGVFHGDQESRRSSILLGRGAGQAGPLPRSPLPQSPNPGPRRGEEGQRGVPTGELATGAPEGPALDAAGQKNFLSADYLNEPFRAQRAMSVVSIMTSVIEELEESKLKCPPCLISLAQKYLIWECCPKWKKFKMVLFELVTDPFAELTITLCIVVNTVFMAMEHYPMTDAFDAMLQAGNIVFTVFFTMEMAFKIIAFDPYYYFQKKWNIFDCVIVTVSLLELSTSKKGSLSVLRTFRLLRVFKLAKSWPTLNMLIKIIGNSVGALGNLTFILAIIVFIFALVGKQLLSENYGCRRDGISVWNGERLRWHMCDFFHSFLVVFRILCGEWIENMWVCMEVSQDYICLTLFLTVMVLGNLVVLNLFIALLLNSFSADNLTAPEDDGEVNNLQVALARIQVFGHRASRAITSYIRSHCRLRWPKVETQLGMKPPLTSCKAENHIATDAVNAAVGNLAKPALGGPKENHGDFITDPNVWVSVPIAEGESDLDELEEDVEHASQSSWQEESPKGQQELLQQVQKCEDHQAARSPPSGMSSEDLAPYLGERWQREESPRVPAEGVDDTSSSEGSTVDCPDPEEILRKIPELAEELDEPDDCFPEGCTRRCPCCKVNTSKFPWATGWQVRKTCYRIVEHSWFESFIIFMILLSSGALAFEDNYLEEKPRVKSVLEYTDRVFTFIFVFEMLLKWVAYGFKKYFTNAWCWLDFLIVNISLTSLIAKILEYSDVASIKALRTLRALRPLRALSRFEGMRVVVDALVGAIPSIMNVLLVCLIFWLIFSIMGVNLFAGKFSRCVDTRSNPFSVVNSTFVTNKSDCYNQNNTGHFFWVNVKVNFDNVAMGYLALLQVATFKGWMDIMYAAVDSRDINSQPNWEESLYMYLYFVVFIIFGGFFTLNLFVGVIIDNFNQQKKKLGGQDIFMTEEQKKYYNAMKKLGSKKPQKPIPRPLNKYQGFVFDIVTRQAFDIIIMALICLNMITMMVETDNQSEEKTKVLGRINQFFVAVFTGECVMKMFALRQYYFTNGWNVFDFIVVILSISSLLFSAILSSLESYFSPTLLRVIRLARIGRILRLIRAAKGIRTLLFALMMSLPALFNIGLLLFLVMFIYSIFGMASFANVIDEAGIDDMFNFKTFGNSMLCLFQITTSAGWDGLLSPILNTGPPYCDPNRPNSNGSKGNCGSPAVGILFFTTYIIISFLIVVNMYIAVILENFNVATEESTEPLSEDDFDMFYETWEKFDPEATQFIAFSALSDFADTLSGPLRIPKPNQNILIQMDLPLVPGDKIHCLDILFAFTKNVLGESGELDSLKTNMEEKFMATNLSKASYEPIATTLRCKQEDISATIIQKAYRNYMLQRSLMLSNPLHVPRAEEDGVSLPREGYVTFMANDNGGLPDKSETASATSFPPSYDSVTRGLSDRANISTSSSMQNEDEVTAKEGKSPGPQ
Cytochrome P450 2C9, sequence (P11712 whole entry): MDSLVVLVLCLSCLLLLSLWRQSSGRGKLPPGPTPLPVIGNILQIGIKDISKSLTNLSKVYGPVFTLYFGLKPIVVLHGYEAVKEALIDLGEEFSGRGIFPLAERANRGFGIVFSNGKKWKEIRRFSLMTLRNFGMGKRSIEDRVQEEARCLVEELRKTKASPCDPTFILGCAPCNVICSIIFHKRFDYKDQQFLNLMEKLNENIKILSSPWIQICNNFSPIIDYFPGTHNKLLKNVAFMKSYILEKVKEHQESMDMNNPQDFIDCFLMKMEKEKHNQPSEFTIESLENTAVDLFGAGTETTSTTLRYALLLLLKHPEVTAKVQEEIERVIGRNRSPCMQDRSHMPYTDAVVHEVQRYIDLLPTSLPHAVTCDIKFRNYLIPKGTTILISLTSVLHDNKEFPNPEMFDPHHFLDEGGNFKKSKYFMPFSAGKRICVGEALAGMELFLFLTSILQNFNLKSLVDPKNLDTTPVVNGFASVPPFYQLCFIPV

SMILES	fraction unbound [2]	Kp at 1 h [3]	inhibition at 30 µM [4] [%]	inhibition at 30 µM [5] [%]	IC50 [6] [nM]	Papp [8] [×10⁻⁶ cm/s]	inhibition [11]	bioavailability [13] [%]	Vd [14] [L/kg]	Vd [17] [L/kg]	bioavailability [19] [%]	clearance [20] [mL/min/kg]	INH (Cytochrome P450 1A2) [µM]	solubility kinetic at 2 h [23] [µg/mL]	INH (Cytochrome P450 3A4) [µM]	clearance [25] [mL/min/kg]	IC50 [26] [nM]	remaining at 1 h [28] [%]	IC50 [29] [nM]	efflux ratio [30]	other results
CS(=N)(=O)c1cccc(NC(=O)c2cc(C(F)(F)F)cnc2Oc2ccc(F)cc2Cl)c1 (centres undefined)	0.073	0.89	< 25	< 25	12	15.5	Active	86	1.9	2	61	5.9	> 30	26 (≈ 53.3 µM)	> 30	3.6	> 30000	> 95	660	0.8	inhibition [1]: 24.9%; clearance [7]: 2.5 mL/min/kg; inhibition at 30 µM [9]: < 25%; IC50 [10]: 9310 nM; inhibition at 30 µM [12]: < 25%; inhibition at 30 µM [15]: < 25%; inhibition at 30 µM [16]: < 25%; bioavailability [18]: 98%; IC50 [21]: 43 nM; inhibition at 30 µM [22]: < 25%; inhibition [24]: 25.4%; Vd [27]: 2.9 L/kg
COc1cc(F)ccc1Oc1ncc(C(F)(F)F)cc1C(=O)Nc1cccc(S(C)(=O)=O)c1					14		Active	14				16									IC50 [31]: 60 nM; half-life [32]: 5.6 h
COc1cc(F)ccc1Oc1cc(C(F)(F)F)ncc1C(=O)Nc1ccnnc1	0.15				71	63	Active	45	1	3.4	100	24	4	95 (≈ 233 µM)	> 30	11	> 30000	95	3100	0.7	inhibition (INH) (Cytochrome P450 2C9): Moderate_effect
Cc1cc(F)ccc1Oc1ncc(C(F)(F)F)cc1C(=O)Nc1cccc([S@](C)(=N)=O)c1	0.14	0.6	< 25	< 25	35	18.1	Active	80	1.8	1.2	39	6.1	> 30	65 (≈ 139 µM)	> 30	1.7	> 30000	> 95	3040	0.8	inhibition [33]: 33.8%; inhibition [34]: 35.5%; clearance [7]: 7.7 mL/min/kg; inhibition at 30 µM [9]: < 25%; IC50 [10]: > 30000 nM; inhibition at 30 µM [12]: < 25%; inhibition at 30 µM [15]: < 25%; inhibition at 30 µM [16]: < 25%; bioavailability [18]: 61%; IC50 [21]: 53 nM; inhibition at 30 µM [22]: < 25%; IC50 [35]: 40 nM; Vd [27]: 1.9 L/kg
